Laboratory results as given in patent US20100004292A1, “Iminooxazolidine Derivatives and Their Use” (Bayer HealthCare AG, priority 2005, published 2010).

Target: human factor Xa (FXa) (Homo sapiens, UniProt P00742)
Experiment: Determination of the factor Xa inhibition (chromogenic substrate)
Assay type: biochemical
Settings: human FXa 0.5 nmol/l, 150 μmol/l Pefachrome FXa, 25° C., pH 8.3
Description: The enzymatic activity of human factor Xa (FXa) is measured using the conversion of a chromogenic substrate specific for FXa. Factor Xa cleaves p-nitroaniline from the chromogenic substrate. The determinations are carried out in microtiter plates as follows:
The test substances, in various concentrations, are dissolved in DMSO and incubated for 10 minutes at 25° C. with human FXa (0.5 nmol/l dissolved in 50 mmol/l of Tris buffer [C,C,C-tris(hydroxymethyl)aminomethane], 150 mmol/l of NaCl, 0.1% BSA [bovine serum albumin], pH=8.3). Pure DMSO is used as control. The chromogenic substrate (150 μmol/l Pefachrome® FXa from Pentapharm) is then added. After an incubation time of 20 minutes at 25° C., the extinction at 405 nm is determined.

human factor Xa (FXa), sequence (P00742 235-488 limits assumed): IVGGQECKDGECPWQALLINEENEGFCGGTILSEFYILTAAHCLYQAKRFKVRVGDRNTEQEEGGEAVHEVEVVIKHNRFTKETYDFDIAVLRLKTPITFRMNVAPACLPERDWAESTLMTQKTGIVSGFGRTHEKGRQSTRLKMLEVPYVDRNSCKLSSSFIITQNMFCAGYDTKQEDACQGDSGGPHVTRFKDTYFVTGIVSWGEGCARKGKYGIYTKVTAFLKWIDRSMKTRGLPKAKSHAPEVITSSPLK
human factor Xa (FXa), sequence (P00742 41-179 partner limits assumed): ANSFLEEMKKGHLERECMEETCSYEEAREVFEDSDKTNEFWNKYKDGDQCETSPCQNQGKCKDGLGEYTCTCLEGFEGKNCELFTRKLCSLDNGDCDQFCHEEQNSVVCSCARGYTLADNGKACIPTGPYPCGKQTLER

Row | Structure (SMILES) | IC50 [nM]
1 | Cc1cc(NC(=O)c2ccc(Cl)s2)c(C(=O)Nc2ccc(N3CCOC3=N)cc2)cc1N(C)C [Example 20, 5-Chloro-N-[4-(dimethylamino)-2-({[4-(2-imino-1,3-oxazolidin-3-yl)phenyl]amino}carbonyl)-5-methylphenyl]thiophene-2-carboxamide methanesulfonate] | 0.66
2 | N=C1OCCN1c1ccc(NC(=O)c2ccc(C(F)(F)F)cc2NC(=O)c2ccc(Cl)s2)cc1 [Example 3, 5-Chloro-N-[2-({[4-(2-imino-1,3-oxazolidin-3-yl)phenyl]amino}carbonyl)-5-(trifluoromethyl)-phenyl]thiophene-2-carboxamide methanesulfonate] | 1.1

The next lines start with the values.

Row | IC50 [nM] | Structure (SMILES)
3 | 0.91 | CSc1nc(NC(=O)c2ccc(Cl)s2)c(C(=O)Nc2ccc(N3CCOC3=N)cc2)s1 [Example 24, 4-{[(5-Chloro-2-thienyl)carbonyl]amino}-N-[4-(2-imino-1,3-oxazolidin-3-yl)phenyl]-2-(methyl-thio)-1,3-thiazole-5-carboxamide methanesulfonate]
4 | 2.2 | N=C1OCCN1c1ccc(NC(=O)c2cscc2NC(=O)c2ccc(Cl)s2)cc1 [Example 16, 5-Chloro-N-[4-({[4-(2-imino-1,3-oxazolidin-3-yl)phenyl]amino}carbonyl)-3-thienyl]thiophene-2-carboxamide methanesulfonate]
5 | 6.3 | N=C1OCCN1c1ccc(NC(=O)c2ccncc2NC(=O)c2ccc(Cl)s2)cc1 [Example 11, 3-{[(5-Chloro-2-thienyl)carbonyl]amino}-N-[4-(2-imino-1,3-oxazolidin-3-yl)phenyl]isonicotinamide methanesulfonate]
